From patent US11541107B2, “Peptides and T cells for use in immunotherapeutic treatment of various cancers” (Immatics Biotechnologies GmbH, priority 2015, dated 2023)
Values belong to the substance of their own block, whether it stands above or below them.

System: HLA-A*24
Experiment: MHC binding assay, UV-ligand exchange with beta2m ELISA, HLA-A*24
Design: species or system human
Settings: binding to HLA-A*24 ranged by peptide exchange yield (UV-ligand exchange, beta2m ELISA)
Text: Candidate peptides for T cell based therapies according to the present invention were further tested for their MHC binding capacity (affinity). The individual peptide-MHC complexes were produced by UV-ligand exchange, where a UV-sensitive peptide is cleaved upon UV-irradiation, and exchanged with the peptide of interest as analyzed. Only peptide candidates that can effectively bind and stabilize the peptide-receptive MHC molecules prevent dissociation of the MHC complexes. To determine the yield of the exchange reaction, an ELISA was performed based on the detection of the light chain (ß2 m) of stabilized MHC complexes. The assay was performed as generally described in Rodenko et al. (Rodenko et al., 2006).
96 well MAXISorp plates (NUNC) were coated over night with 2 ug/ml streptavidin in PBS at room temperature, washed 4× and blocked for 1 h at 37° C. in 2% BSA containing blocking buffer. […] Peptide-MHC monomers of the UV-exchange reaction were diluted 100 fold in blocking buffer. Samples were incubated for 1 h at 37° C., washed four times, incubated with 2 ug/ml HRP conjugated anti-β2 m for 1h at 37° C., washed again and detected with TMB solution that is stopped with […]. Absorption was measured at 450 nm. Candidate peptides that show a high exchange yield (preferably higher than 50%, most preferred higher than 75%) are generally preferred for a generation and production of antibodies or fragments thereof, and/or T cell receptors or fragments thereof, as they show sufficient avidity to the MHC molecules and prevent dissociation of the MHC complexes.

Substance: 97 (TYTFLKETF; listed as Homo sapiens) [compound 97]
Peptide exchange: ++++ (>=75% = ++++)

Substance: 99 (QYILAVPVL; listed as Homo sapiens) [compound 99]
Peptide exchange: ++++ (>=75% = ++++)

Substance: 100 (VYIESRIGTSTSF; listed as Homo sapiens) [compound 100]
Peptide exchange: +++ (50%-75% = +++)

Substance: 102 (VYPFENFEF; listed as Homo sapiens) [compound 102]
Peptide exchange: +++ (50%-75% = +++)

Substance: 107 (KYFPYLVVI; listed as Homo sapiens) [compound 107]
Peptide exchange: +++ (50%-75% = +++)

Substance: 108 (PYLVVIHTL; listed as Homo sapiens) [compound 108]
Peptide exchange: +++ (50%-75% = +++)

Substance: 109 (LFITGGQFF; listed as Homo sapiens) [compound 109]
Peptide exchange: ++++ (>=75% = ++++)

Substance: 110 (SYPKIIEEF; listed as Homo sapiens) [compound 110]
Peptide exchange: +++ (50%-75% = +++)

Substance: 112 (IYNFVESKL; listed as Homo sapiens) [compound 112]
Peptide exchange: +++ (50%-75% = +++)

Substance: 113 (IYSFHTLSF; listed as Homo sapiens) [compound 113]
Peptide exchange: +++ (50%-75% = +++)

Substance: 114 (QYLDGTWSL; listed as Homo sapiens) [compound 114]
Peptide exchange: ++++ (>=75% = ++++)

Substance: 116 (AYVIAVHLF; listed as Homo sapiens) [compound 116]
Peptide exchange: ++++ (>=75% = ++++)

Substance: 117 (IYLSDLTYI; listed as Homo sapiens) [compound 117]
Peptide exchange: +++ (50%-75% = +++)

Substance: 118 (KYLNSVQYI; listed as Homo sapiens) [compound 118]
Peptide exchange: +++ (50%-75% = +++)

Substance: 119 (VYRVYVTTF; listed as Homo sapiens) [compound 119]
Peptide exchange: +++ (50%-75% = +++)

Substance: 120 (GYIEHFSLW; listed as Homo sapiens) [compound 120]
Peptide exchange: ++++ (>=75% = ++++)

Substance: 121 (RYGLPAAWSTF; listed as Homo sapiens) [compound 121]
Peptide exchange: +++ (50%-75% = +++)

Substance: 122 (EYQARIPEF; listed as Homo sapiens) [compound 122]
Peptide exchange: +++ (50%-75% = +++)

Substance: 123 (VYTPVLEHL; listed as Homo sapiens) [compound 123]
Peptide exchange: ++ (20%-49% = ++)

Substance: 124 (TYKDYVDLF; listed as Homo sapiens) [compound 124]
Peptide exchange: + (<20% = +)

Substance: 125 (VFSRDFGLLVF; listed as Homo sapiens) [compound 125]
Peptide exchange: +++ (50%-75% = +++)

Substance: 127 (QYFTGNPLF; listed as Homo sapiens) [compound 127]
Peptide exchange: +++ (50%-75% = +++)

Substance: 128 (VYPFDWQYI; listed as Homo sapiens) [compound 128]
Peptide exchange: ++++ (>=75% = ++++)

Substance: 129 (KYIDYLMTW; listed as Homo sapiens) [compound 129]
Peptide exchange: ++++ (>=75% = ++++)

Substance: 131 (EYLDRIGQLFF; listed as Homo sapiens) [compound 131]
Peptide exchange: +++ (50%-75% = +++)

Substance: 133 (KYLEDMKTYF; listed as Homo sapiens) [compound 133]
Peptide exchange: +++ (50%-75% = +++)

Substance: 134 (AYIPTPIYF; listed as Homo sapiens) [compound 134]
Peptide exchange: +++ (50%-75% = +++)

Substance: 135 (VYEAMVPLF; listed as Homo sapiens) [compound 135]
Peptide exchange: ++++ (>=75% = ++++)

Substance: 136 (IYPEWPVVFF; listed as Homo sapiens) [compound 136]
Peptide exchange: +++ (50%-75% = +++)

Substance: 138 (VYNAVSTSF; listed as Homo sapiens) [compound 138]
Peptide exchange: ++ (20%-49% = ++)

Second part, the substance after the results:

Peptide exchange: +++ (50%-75% = +++)
Substance: 139 (IFGIFPNQF; listed as Homo sapiens) [compound 139]

Peptide exchange: ++++ (>=75% = ++++)
Substance: 140 (RYLINSYDF; listed as Homo sapiens) [compound 140]

Peptide exchange: +++ (50%-75% = +++)
Substance: 141 (SYNGHLTIWF; listed as Homo sapiens) [compound 141]

Peptide exchange: +++ (50%-75% = +++)
Substance: 143 (KYIFQLNEI; listed as Homo sapiens) [compound 143]

Peptide exchange: ++++ (>=75% = ++++)
Substance: 144 (VFASLPGFLF; listed as Homo sapiens) [compound 144]

Peptide exchange: +++ (50%-75% = +++)
Substance: 145 (VYALKVRTI; listed as Homo sapiens) [compound 145]

Peptide exchange: +++ (50%-75% = +++)
Substance: 146 (NYYERIHAL; listed as Homo sapiens) [compound 146]

Peptide exchange: +++ (50%-75% = +++)
Substance: 147 (LYLAFPLAF; listed as Homo sapiens) [compound 147]

Peptide exchange: ++++ (>=75% = ++++)
Substance: 148 (SYGTVSQIF; listed as Homo sapiens) [compound 148]

Peptide exchange: ++++ (>=75% = ++++)
Substance: 149 (SYGTVSQI; listed as Homo sapiens) [compound 149]

Peptide exchange: ++ (20%-49% = ++)
Substance: 152 (KFFDDLGDELLF; listed as Homo sapiens) [compound 152]

Peptide exchange: ++++ (>=75% = ++++)
Substance: 153 (VYVPFGGKSMITF; listed as Homo sapiens) [compound 153]

Peptide exchange: ++++ (>=75% = ++++)
Substance: 154 (VYGVPTPHF; listed as Homo sapiens) [compound 154]

Peptide exchange: ++++ (>=75% = ++++)
Substance: 155 (IYKWITDNF; listed as Homo sapiens) [compound 155]

Peptide exchange: +++ (50%-75% = +++)
Substance: 159 (IYEETRGVL; listed as Homo sapiens) [compound 159]

Peptide exchange: +++ (50%-75% = +++)
Substance: 165 (EYFTPLLSGQF; listed as Homo sapiens) [compound 165]

Peptide exchange: +++ (50%-75% = +++)
Substance: 168 (RYLEAALRL; listed as Homo sapiens) [compound 168]

Peptide exchange: +++ (50%-75% = +++)
Substance: 169 (NYITGKGDVF; listed as Homo sapiens) [compound 169]

Peptide exchange: ++++ (>=75% = ++++)
Substance: 170 (QYPFHVPLL; listed as Homo sapiens) [compound 170]

Peptide exchange: +++ (50%-75% = +++)
Substance: 171 (NYEDHFPLL; listed as Homo sapiens) [compound 171]

Peptide exchange: ++++ (>=75% = ++++)
Substance: 173 (QYLEKYYNL; listed as Homo sapiens) [compound 173]

Peptide exchange: +++ (50%-75% = +++)
Substance: 176 (FYINGQYQF; listed as Homo sapiens) [compound 176]

Peptide exchange: +++ (50%-75% = +++)
Substance: 178 (NYSSAVQKF; listed as Homo sapiens) [compound 178]

Peptide exchange: +++ (50%-75% = +++)
Substance: 179 (TYIPVGLGRLL; listed as Homo sapiens) [compound 179]

Peptide exchange: ++++ (>=75% = ++++)
Substance: 182 (AYAQLGYLLF; listed as Homo sapiens) [compound 182]

Peptide exchange: +++ (50%-75% = +++)
Substance: 183 (PYLQDVPRI; listed as Homo sapiens) [compound 183]

Peptide exchange: ++++ (>=75% = ++++)
Substance: 184 (IYSVGAFENF; listed as Homo sapiens) [compound 184]

Peptide exchange: ++++ (>=75% = ++++)
Substance: 185 (QYLVHVNDL; listed as Homo sapiens) [compound 185]

Peptide exchange: ++++ (>=75% = ++++)
Substance: 187 (AYAANVHYL; listed as Homo sapiens) [compound 187]

Peptide exchange: +++ (50%-75% = +++)
Substance: 188 (GYKTFFNEF; listed as Homo sapiens) [compound 188]

Peptide exchange: +++ (50%-75% = +++)
Substance: 191 (TYPDGTYTGRIF; listed as Homo sapiens) [compound 191]

Peptide exchange: +++ (50%-75% = +++)
Substance: 192 (RYSTFSEIF; listed as Homo sapiens) [compound 192]

Peptide exchange: +++ (50%-75% = +++)
Substance: 193 (LYLENNAQTQF; listed as Homo sapiens) [compound 193]

Peptide exchange: +++ (50%-75% = +++)
Substance: 194 (VYQSLSNSL; listed as Homo sapiens) [compound 194]

Peptide exchange: +++ (50%-75% = +++)
Substance: 195 (AYIKGGWIL; listed as Homo sapiens) [compound 195]

Peptide exchange: ++++ (>=75% = ++++)
Substance: 196 (GYIRGSWQF; listed as Homo sapiens) [compound 196]

Peptide exchange: ++++ (>=75% = ++++)
Substance: 197 (IFTDIFHYL; listed as Homo sapiens) [compound 197]

Peptide exchange: ++ (20%-49% = ++)
Substance: 198 (DYVGFTLKI; listed as Homo sapiens) [compound 198]

Peptide exchange: +++ (50%-75% = +++)
Substance: 199 (SYLNHLNNL; listed as Homo sapiens) [compound 199]

Peptide exchange: +++ (50%-75% = +++)
Substance: 200 (VFIHHLPQF; listed as Homo sapiens) [compound 200]

Peptide exchange: +++ (50%-75% = +++)
Substance: 201 (GYNPNRVFF; listed as Homo sapiens) [compound 201]

Peptide exchange: +++ (50%-75% = +++)
Substance: 202 (RYVEGIVSL; listed as Homo sapiens) [compound 202]

Peptide exchange: +++ (50%-75% = +++)
Substance: 204 (EYLSTCSKL; listed as Homo sapiens) [compound 204]
